Laboratory results: patent publication US20040266623A1, “SYNERGISTIC QUINCLORAC HERBICIDAL COMPOSITIONS” (priority 2003, published 2004)

Columns and labels:
Assay in all cases: Greenhouse pot test, postemergent spray, visual control rating converted to percent control
Assay type in all cases: in vivo
plantain = system: plantain
Summary of the method: (§1)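 Greenhouse pots in soilless medium receive a 43.46 gal/acre spray. Control is scored visually at 24, 48, 72 HAT and 7, 14, 21 DAT, 1–9 scale converted to percent.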

white clover = system: white clover
Summary of the method: as §1

dandelion = system: dandelion
Summary of the method: as §1

O=C(O)c1c(Cl)ccc2cc(Cl)cnc12 [Quinclorac, 3,7-dichloro-8-quinolinecarboxylic acid]
% Control Plantain (plantain; Test 4, 7 DAT, 0.18 lbs/A): 33.3%
Control (1-9) Plantain (plantain; Test 4, 7 DAT, 0.18 lbs/A): 3
% Control Plantain (plantain; Test 4, 7 DAT, 0.375 lbs/A): 22.2%
Control (1-9) Plantain (plantain; Test 4, 7 DAT, 0.375 lbs/A): 2
% Control Plantain (plantain; Test 4, 7 DAT, 0.75 lbs/A): 33.3%
Control (1-9) Plantain (plantain; Test 4, 7 DAT, 0.75 lbs/A): 3
% Control Plantain (plantain; Test 4, 14 DAT, 0.18 lbs/A): 33.3%
Control (1-9) Plantain (plantain; Test 4, 14 DAT, 0.18 lbs/A): 3
% Control Plantain (plantain; Test 4, 14 DAT, 0.375 lbs/A): 22.2%
Control (1-9) Plantain (plantain; Test 4, 14 DAT, 0.375 lbs/A): 2
% Control Plantain (plantain; Test 4, 14 DAT, 0.75 lbs/A): 33.3%
Control (1-9) Plantain (plantain; Test 4, 14 DAT, 0.75 lbs/A): 3
% Control Clover (white clover; Test 1, 7 DAT, 0.18 lbs/A): 33.3%
Control (1-9) Clover (white clover; Test 1, 7 DAT, 0.18 lbs/A): 3
% Control Clover (white clover; Test 1, 7 DAT, 0.375 lbs/A): 33.3%
Control (1-9) Clover (white clover; Test 1, 7 DAT, 0.375 lbs/A): 3
% Control Clover (white clover; Test 1, 7 DAT, 0.75 lbs/A): 33.3%
Control (1-9) Clover (white clover; Test 1, 7 DAT, 0.75 lbs/A): 3
% Control Clover (white clover; Test 1, 14 DAT, 0.18 lbs/A): 100.0%
Control (1-9) Clover (white clover; Test 1, 14 DAT, 0.18 lbs/A): 9
% Control Clover (white clover; Test 1, 14 DAT, 0.375 lbs/A): 100.0%
Control (1-9) Clover (white clover; Test 1, 14 DAT, 0.375 lbs/A): 9
% Control Clover (white clover; Test 1, 14 DAT, 0.75 lbs/A): 88.9%
Control (1-9) Clover (white clover; Test 1, 14 DAT, 0.75 lbs/A): 8
% Control Clover (white clover; Test 1, 24 HAT, 0.18 lbs/A): 11.1%
Control (1-9) Clover (white clover; Test 1, 24 HAT, 0.18 lbs/A): 1
% Control Clover (white clover; Test 1, 24 HAT, 0.375 lbs/A): 11.1%
Control (1-9) Clover (white clover; Test 1, 24 HAT, 0.375 lbs/A): 1
% Control Clover (white clover; Test 1, 24 HAT, 0.75 lbs/A): 11.1%
Control (1-9) Clover (white clover; Test 1, 24 HAT, 0.75 lbs/A): 1
% Control Clover (white clover; Test 1, 48 HAT, 0.18 lbs/A): 22.2%
Control (1-9) Clover (white clover; Test 1, 48 HAT, 0.18 lbs/A): 2
% Control Clover (white clover; Test 1, 48 HAT, 0.375 lbs/A): 33.3%
Control (1-9) Clover (white clover; Test 1, 48 HAT, 0.375 lbs/A): 3
% Control Clover (white clover; Test 1, 48 HAT, 0.75 lbs/A): 33.3%
Control (1-9) Clover (white clover; Test 1, 48 HAT, 0.75 lbs/A): 3
% Control Clover (white clover; Test 2, 7 DAT, 0.18 lbs/A): 66.7%
Control (1-9) Clover (white clover; Test 2, 7 DAT, 0.18 lbs/A): 6
% Control Clover (white clover; Test 2, 7 DAT, 0.375 lbs/A): 77.8%
Control (1-9) Clover (white clover; Test 2, 7 DAT, 0.375 lbs/A): 7
% Control Clover (white clover; Test 2, 7 DAT, 0.75 lbs/A): 77.8%
Control (1-9) Clover (white clover; Test 2, 7 DAT, 0.75 lbs/A): 7
% Control Clover (white clover; Test 2, 14 DAT, 0.18 lbs/A): 100.0%
Control (1-9) Clover (white clover; Test 2, 14 DAT, 0.18 lbs/A): 9
% Control Clover (white clover; Test 2, 14 DAT, 0.375 lbs/A): 100.0%
Control (1-9) Clover (white clover; Test 2, 14 DAT, 0.375 lbs/A): 9
% Control Clover (white clover; Test 2, 14 DAT, 0.75 lbs/A): 100.0%
Control (1-9) Clover (white clover; Test 2, 14 DAT, 0.75 lbs/A): 9
% Control Clover (white clover; Test 2, 24 HAT, 0.18 lbs/A): 22.2%
Control (1-9) Clover (white clover; Test 2, 24 HAT, 0.18 lbs/A): 2
% Control Clover (white clover; Test 2, 24 HAT, 0.375 lbs/A): 22.2%
Control (1-9) Clover (white clover; Test 2, 24 HAT, 0.375 lbs/A): 2
% Control Clover (white clover; Test 2, 24 HAT, 0.75 lbs/A): 22.2%
Control (1-9) Clover (white clover; Test 2, 24 HAT, 0.75 lbs/A): 2
% Control Clover (white clover; Test 2, 72 HAT, 0.18 lbs/A): 33.3%
Control (1-9) Clover (white clover; Test 2, 72 HAT, 0.18 lbs/A): 3
% Control Clover (white clover; Test 2, 72 HAT, 0.375 lbs/A): 33.3%
Control (1-9) Clover (white clover; Test 2, 72 HAT, 0.375 lbs/A): 3
% Control Clover (white clover; Test 2, 72 HAT, 0.75 lbs/A): 33.3%
Control (1-9) Clover (white clover; Test 2, 72 HAT, 0.75 lbs/A): 3
% Control Clover (white clover; Test 4, 7 DAT, 0.18 lbs/A): 33.3%
Control (1-9) Clover (white clover; Test 4, 7 DAT, 0.18 lbs/A): 3
% Control Clover (white clover; Test 4, 7 DAT, 0.375 lbs/A): 44.4%
Control (1-9) Clover (white clover; Test 4, 7 DAT, 0.375 lbs/A): 4
% Control Clover (white clover; Test 4, 7 DAT, 0.75 lbs/A): 33.3%
Control (1-9) Clover (white clover; Test 4, 7 DAT, 0.75 lbs/A): 3
% Control Clover (white clover; Test 4, 14 DAT, 0.18 lbs/A): 33.3%
Control (1-9) Clover (white clover; Test 4, 14 DAT, 0.18 lbs/A): 3
% Control Clover (white clover; Test 4, 14 DAT, 0.375 lbs/A): 55.6%
Control (1-9) Clover (white clover; Test 4, 14 DAT, 0.375 lbs/A): 5
% Control Clover (white clover; Test 4, 14 DAT, 0.75 lbs/A): 44.4%
Control (1-9) Clover (white clover; Test 4, 14 DAT, 0.75 lbs/A): 4
% Control Dandelion (dandelion; Test 1, 7 DAT, 0.18 lbs/A): 33.3%
Control (1-9) Dandelion (dandelion; Test 1, 7 DAT, 0.18 lbs/A): 3
% Control Dandelion (dandelion; Test 1, 7 DAT, 0.375 lbs/A): 33.3%
Control (1-9) Dandelion (dandelion; Test 1, 7 DAT, 0.375 lbs/A): 3
% Control Dandelion (dandelion; Test 1, 7 DAT, 0.75 lbs/A): 33.3%
Control (1-9) Dandelion (dandelion; Test 1, 7 DAT, 0.75 lbs/A): 3
% Control Dandelion (dandelion; Test 1, 14 DAT, 0.18 lbs/A): 88.9%
Control (1-9) Dandelion (dandelion; Test 1, 14 DAT, 0.18 lbs/A): 8
% Control Dandelion (dandelion; Test 1, 14 DAT, 0.375 lbs/A): 77.8%
Control (1-9) Dandelion (dandelion; Test 1, 14 DAT, 0.375 lbs/A): 7
% Control Dandelion (dandelion; Test 1, 14 DAT, 0.75 lbs/A): 66.7%
Control (1-9) Dandelion (dandelion; Test 1, 14 DAT, 0.75 lbs/A): 6
% Control Dandelion (dandelion; Test 1, 24 HAT, 0.18 lbs/A): 22.2%
Control (1-9) Dandelion (dandelion; Test 1, 24 HAT, 0.18 lbs/A): 2
% Control Dandelion (dandelion; Test 1, 24 HAT, 0.375 lbs/A): 11.1%
Control (1-9) Dandelion (dandelion; Test 1, 24 HAT, 0.375 lbs/A): 1
% Control Dandelion (dandelion; Test 1, 24 HAT, 0.75 lbs/A): 11.1%
Control (1-9) Dandelion (dandelion; Test 1, 24 HAT, 0.75 lbs/A): 1
% Control Dandelion (dandelion; Test 1, 48 HAT, 0.18 lbs/A): 33.3%
Control (1-9) Dandelion (dandelion; Test 1, 48 HAT, 0.18 lbs/A): 3
% Control Dandelion (dandelion; Test 1, 48 HAT, 0.375 lbs/A): 33.3%
Control (1-9) Dandelion (dandelion; Test 1, 48 HAT, 0.375 lbs/A): 3
% Control Dandelion (dandelion; Test 1, 48 HAT, 0.75 lbs/A): 33.3%
Control (1-9) Dandelion (dandelion; Test 1, 48 HAT, 0.75 lbs/A): 3
% Control Dandelion (dandelion; Test 2, 7 DAT, 0.18 lbs/A): 88.9%
Control (1-9) Dandelion (dandelion; Test 2, 7 DAT, 0.18 lbs/A): 8
% Control Dandelion (dandelion; Test 2, 7 DAT, 0.375 lbs/A): 33.3%
Control (1-9) Dandelion (dandelion; Test 2, 7 DAT, 0.375 lbs/A): 3
% Control Dandelion (dandelion; Test 2, 7 DAT, 0.75 lbs/A): 33.3%
Control (1-9) Dandelion (dandelion; Test 2, 7 DAT, 0.75 lbs/A): 3
% Control Dandelion (dandelion; Test 2, 14 DAT, 0.18 lbs/A): 88.9%
Control (1-9) Dandelion (dandelion; Test 2, 14 DAT, 0.18 lbs/A): 8
% Control Dandelion (dandelion; Test 2, 14 DAT, 0.375 lbs/A): 88.9%
Control (1-9) Dandelion (dandelion; Test 2, 14 DAT, 0.375 lbs/A): 8
% Control Dandelion (dandelion; Test 2, 14 DAT, 0.75 lbs/A): 66.7%
Control (1-9) Dandelion (dandelion; Test 2, 14 DAT, 0.75 lbs/A): 6
% Control Dandelion (dandelion; Test 2, 24 HAT, 0.18 lbs/A): 22.2%
Control (1-9) Dandelion (dandelion; Test 2, 24 HAT, 0.18 lbs/A): 2
% Control Dandelion (dandelion; Test 2, 24 HAT, 0.375 lbs/A): 22.2%
Control (1-9) Dandelion (dandelion; Test 2, 24 HAT, 0.375 lbs/A): 2
% Control Dandelion (dandelion; Test 2, 24 HAT, 0.75 lbs/A): 22.2%
Control (1-9) Dandelion (dandelion; Test 2, 24 HAT, 0.75 lbs/A): 2
% Control Dandelion (dandelion; Test 2, 72 HAT, 0.18 lbs/A): 55.6%
Control (1-9) Dandelion (dandelion; Test 2, 72 HAT, 0.18 lbs/A): 5
% Control Dandelion (dandelion; Test 2, 72 HAT, 0.375 lbs/A): 33.3%
Control (1-9) Dandelion (dandelion; Test 2, 72 HAT, 0.375 lbs/A): 3
% Control Dandelion (dandelion; Test 2, 72 HAT, 0.75 lbs/A): 33.3%
Control (1-9) Dandelion (dandelion; Test 2, 72 HAT, 0.75 lbs/A): 3
% Control Dandelion (dandelion; Test 4, 7 DAT, 0.18 lbs/A): 22.2%
Control (1-9) Dandelion (dandelion; Test 4, 7 DAT, 0.18 lbs/A): 2
% Control Dandelion (dandelion; Test 4, 7 DAT, 0.375 lbs/A): 22.2%
Control (1-9) Dandelion (dandelion; Test 4, 7 DAT, 0.375 lbs/A): 2
% Control Dandelion (dandelion; Test 4, 7 DAT, 0.75 lbs/A): 22.2%
Control (1-9) Dandelion (dandelion; Test 4, 7 DAT, 0.75 lbs/A): 2
% Control Dandelion (dandelion; Test 4, 14 DAT, 0.18 lbs/A): 22.2%
Control (1-9) Dandelion (dandelion; Test 4, 14 DAT, 0.18 lbs/A): 2
% Control Dandelion (dandelion; Test 4, 14 DAT, 0.375 lbs/A): 22.2%
Control (1-9) Dandelion (dandelion; Test 4, 14 DAT, 0.375 lbs/A): 2
% Control Dandelion (dandelion; Test 4, 14 DAT, 0.75 lbs/A): 22.2%
Control (1-9) Dandelion (dandelion; Test 4, 14 DAT, 0.75 lbs/A): 2
